Reference: PubChem BioAssay AID720688 (NMMLSC, 2013)
Calls of active or inactive are those of the source.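 How the source made its calls: active means half-effect concentration at most 10 µM, response change at least 30% across doses, and a curve fit passing quality checks; inactive means the rest.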

Molecular target: Cell division control protein 42 homolog (Homo sapiens) (UniProt P60953)
Assay: inhibition of fluorescent GTP binding to wildtype Cdc42 – biochemical, protein source comparison, flow cytometry beads, Bodipy-FL-GTP, mechanism study for Ras-family GTPase inhibitor project, late-stage follow-up (AID 720688)
Settings: GST-Cdc42 beads

Cell division control protein 42 homolog (Homo sapiens), sequence (P60953 whole entry, looked up): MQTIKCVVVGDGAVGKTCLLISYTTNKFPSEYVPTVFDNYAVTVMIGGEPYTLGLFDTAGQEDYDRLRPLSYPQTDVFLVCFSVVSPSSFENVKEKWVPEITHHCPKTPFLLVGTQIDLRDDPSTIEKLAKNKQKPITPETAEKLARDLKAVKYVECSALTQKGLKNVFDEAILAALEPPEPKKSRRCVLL

% response remaining, lower = inhibition (protein source 2, at 100 µM (top of the series)) | EC50 (protein source 2) [µM] | Structure (SMILES)
inactive |  | CC1(C)Cc2c(sc(NC(=S)NC(=O)c3ccc(N=[N+]=[N-])cc3)c2C(=O)O)CO1
 | 18.6 | CC1(C)Cc2c(sc(NC(=S)NC(=O)c3cccc(N=[N+]=[N-])c3)c2C(=O)O)CO1
